These results are taken from patent publication US9840464B2, “IAP binding compounds” (TetraLogic Birinapant UK Ltd., priority 2004, dated 2017).

Sequence of XIAP-BIR3 (P98170 241-356 limits assumed): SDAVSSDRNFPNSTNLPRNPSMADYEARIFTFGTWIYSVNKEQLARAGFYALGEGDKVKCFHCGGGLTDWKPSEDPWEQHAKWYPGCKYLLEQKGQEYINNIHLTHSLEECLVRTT

The target in this assay is XIAP-BIR3 (Homo sapiens, UniProt P98170). In words: XIAP BIR3 fluorescence polarization binding assay (competition with AbuRPF-K(5-Fam)-NH2). The conditions noted are these: 5 nM AbuRPF-K(5-Fam)-NH2, 40 nM XIAP-BIR3, pH 7.5; Kd calculated from measured IC50; read-out: KD Range. On the procedure:
Binding constants (Kd) were measured using fluorescence polarization as described by Zaneta Nikolovska-Coleska, Renxiao Wang, Xueliang Fang, Hongguang Pan, York Tomita, Peng Li, Peter P. Roller, Krzysztof Krajewski, Naoyuki Saito, Jeanne Stuckey and Shaomeng Wang, in “Development and Optimization of a Binding Assay for the XIAP BIR3 Domain Using Fluorescence Polarization”, Analytical Biochemistry 2004, 332, 261-273). Briefly, test IAP binding compounds at various concentrations for binding measurements were mixed with 5 nM fluorescently labeled peptide (AbuRPF-K(5-Fam)-NH2) and 40 nM of XIAP-BIR3 for 15 minutes at room temperature in 100 μL of 0.1M Potassium Phosphate buffer, pH 7.5 containing 100 μg/ml bovine γ-globulin. Following incubation, the polarization values (mP) were measured on a Victor^2V using a 485 nm excitation filter and a 520 nm emission filter. IC50 values were determined from the plot using nonlinear least-squares analysis using GraphPad Prism. The Kd values of competitive inhibitors were calculated using the equation described by Zaneta Nikolovska-Coleska et al. based upon the measured IC50 values, the Kd value of the probe and XIAP BIR3 complex, and the concentrations of the protein and probe in the competition assay. In various examples of IAP binding or IAP binding cargo molecules ranges for Kd values: Group A: Kd<0.1 μM; Group B: Kd=0.1-1 μM; Group C: Kd=1-10 μM; Group D: Kd>10 μM.
What is called Kd is the concentration at which binding is half-saturated. As for `COc1ccccc1OC/C=C/[C@@H]1C[C@H](Oc2ccccc2)CN1C(=O)[C@@H](NC(=O)[C@H](C)N)C(C)C` [Entry 3-18], the Kd was 100 to 1000 nM.

Consider `CCc1ccccc1OCCCC1CC(Oc2ccccc2)CN1C(=O)C(NC(=O)CN)C(C)C` (stereo not shown) [Entry 4-27], for which the Kd was greater than 10000 nM.

Regarding `CNC(C)C(=O)NC(C(=O)N1CCCC1COc1ccccc1-c1ccccc1)C(C)C` (stereo not shown) [Entry 2-5], the Kd is 100 to 1000 nM.

As to `CC(N)C(=O)NC(C(=O)N1CCCC1Cc1coc2ccc(Cl)cc12)C(C)C` (stereo not shown) [Entry 5-61], the Kd is less than 100 nM.

As for `CC#CCn1cc(CC2CCCN2C(=O)C(NC(=O)C(C)N)C(C)C)c2ccccc21` (stereo not shown) [Entry 14-102], the Kd is 100 to 1000 nM.

For the compound `CC(=O)n1cc(C[C@@H]2CCCN2C(=O)[C@@H](NC(=O)[C@H](C)N)C(C)C)c2ccccc21` [Entry 14-94, N-{1S-[2S-(1-Acetyl-1H-indol-3-ylmethyl)-pyrrolidine-1-carbonyl]-2-methyl-propyl}-2S-amino-propionamide], the Kd is less than 100 nM.

Take `CC[C@H](N)C(=O)N[C@H](C(=O)N1C[C@@H](Oc2ccccc2)C[C@H]1Cc1coc2ccccc12)C(C)C` [Entry 5-44]: the Kd is less than 100 nM.

Turning to `CCC(NC(=O)C(C)N)C(=O)N1CCCC1Cc1coc2ccccc12` (stereo not shown) [Entry 5-59], the equilibrium dissociation constant (Kd) is 100 to 1000 nM.

Take `CCc1ccccc1OCCC[C@@H]1C[C@H](Oc2ccccc2)CN1C(=O)[C@@H](NC(=O)[C@H](C)NC)C(C)(C)C` [Entry 4-28]: the Kd is 100 to 1000 nM.

As to “2-Amino-N-{2-methyl-1-[2-(5-pyridin-2-yl-benzofuran-3-ylmethyl)-pyrrolidine-1-carbonyl]-propyl}-propionamide [Entry 8-79]”, the Kd was 1000 to 10000 nM.

With `CCNC(C)C(=O)NC(C(=O)N1CCCC1Cc1coc2ccccc12)C(C)C` (stereo not shown) [Entry 5-68], the Kd was 1000 to 10000 nM.

Consider `CC(NC=O)C(=O)NC(C(=O)N1CCCC1Cc1coc2ccccc12)C(C)C` (stereo not shown) [Entry 5-67], for which the Kd is greater than 10000 nM.

Turning to `CCC(N)C(=O)NC(C(=O)N1CCCC1Cc1coc2ccccc12)C(C)C` (stereo not shown) [Entry 5-58], the Kd was 100 to 1000 nM.

As to `CCc1ccccc1OCCCC1CCCN1C(=O)C(NC(=O)C(C)N)C(C)C` (stereo not shown) [Entry 4-34], the Kd is 1000 to 10000 nM.

For `COc1ccc2occ(CC3CCCN3C(=O)C(NC(=O)C(C)N)C(C)C)c2c1` (stereo not shown) [Entry 7-76, 2-Amino-N-{1-[2-(5-methoxy-benzofuran-3-ylmethyl)-pyrrolidine-1-carbonyl]-2-methyl-propyl}-propionamide], the Kd was 1000 to 10000 nM.

Consider `CC(N)C(=O)NC(C(=O)N1CCCC1Cc1c(-c2ccccc2)[nH]c2ccccc12)C(C)C` (stereo not shown) [Entry 9-88], for which the Kd is 1000 to 10000 nM.

On to `CC(N)C(=O)NC(C(=O)N1CCCC1Cc1coc2ccc(-c3ccncc3)cc12)C(C)C` (stereo not shown) [Entry 8-78], for which the Kd is 100 to 1000 nM.

Regarding `Cc1cccc(C)c1OCCCC1CCCN1C(=O)C(NC(=O)C(C)N)C(C)C` (stereo not shown) [Entry 4-38], the Kd is greater than 10000 nM.

Take `C#CCn1cc(CC2CCCN2C(=O)C(NC(=O)C(C)N)C(C)C)c2ccccc21` (stereo not shown) [Entry 14-103]: the Kd was less than 100 nM.

For the compound `CC(C)C(NC(=O)C1CCCN1)C(=O)N1CCCC1Cc1coc2ccccc12` (stereo not shown) [Entry 5-74], the Kd is greater than 10000 nM.

As to `CC(C)[C@H](NC(=O)[C@H](C)N)C(=O)N1C[C@@H](Oc2ccccc2)C[C@H]1/C=C/COc1ccccc1Br` [Entry 3-9], the equilibrium dissociation constant (Kd) was 100 to 1000 nM.

Take `CC(=O)n1cc(CC2CCCN2C(=O)C(NC(=O)C(C)N)C(C)C)c2cccc(C)c21` (stereo not shown) [Entry 14-98]: the Kd was less than 100 nM.

With `CC(NCC1CC1)C(=O)NC(C(=O)N1CCCC1Cc1coc2ccccc12)C(C)C` (stereo not shown) [Entry 5-70], the equilibrium dissociation constant (Kd) was 1000 to 10000 nM.

For `CNC(C)C(=O)NC(C(=O)N1CCCC1Cc1cn(C(C)=O)c2cc(F)ccc12)C(C)(C)C` (stereo not shown) [Entry 14-96], the Kd was 100 to 1000 nM.

For `CC(C)C(NC(=O)CN)C(=O)N1CCCC1Cc1coc2ccccc12` (stereo not shown) [Entry 5-46], the Kd is greater than 10000 nM.

For `CC(C)[C@H](NC(=O)[C@H](C)N)C(=O)N1CCC[C@H]1CCCOc1ccccc1-c1ccccc1` [Entry 4-32], the Kd was 100 to 1000 nM.

For the compound `CC(N)C(=O)NC(C(=O)N1CCCC1CCCOc1ccccc1)C(C)C` (stereo not shown) [Entry 4-37], the Kd is 1000 to 10000 nM.

As for `CCc1ccccc1OCCC[C@@H]1C[C@H](Oc2ccccc2)CN1C(=O)[C@@H](NC(=O)[C@H](C)NC)C(C)C` [Entry 4-26], the Kd was 100 to 1000 nM.

As to `CC(N)C(=O)NC(C(=O)N1CC(Oc2ccccc2)CC1Cc1coc2ccccc12)C(C)C` (single isomer, unassigned) [Entry 5-53], the Kd is 1000 to 10000 nM.

As to `CC(N)C(=O)NC(C(=O)N1CCCC1Cc1c(-c2cnccn2)oc2ccccc12)C(C)C` (stereo not shown) [Entry 9-86], the Kd is less than 100 nM.

Consider `CC(C)[C@H](NC(=O)[C@H](C)N)C(=O)N1C[C@@H](Oc2ccccc2)C[C@H]1/C=C/COc1cccc(Br)c1` [Entry 3-14], for which the Kd was 100 to 1000 nM.

As for `CC(C)C(NC(=O)C(C)(C)N)C(=O)N1CCCC1Cc1coc2ccccc12` (stereo not shown) [Entry 5-64], the Kd is greater than 10000 nM.

Turning to `CCc1ccccc1OC/C=C/[C@@H]1C[C@H](Oc2ccccc2)CN1C(=O)[C@@H](NC(=O)[C@H](C)N)C(C)C` [Entry 3-12, trans-2S-Amino-N-(1S-{2S-[3-(2-ethyl-phenoxy)-propenyl]-4S-phenoxy-pyrrolidine-1-carbonyl}-2-methyl-propyl)-propionamide], the Kd was 100 to 1000 nM.

With `CC(N)C(=O)NC(C(=O)N1CCCC1Cc1coc2ccc(O)cc12)C(C)C` (stereo not shown) [Entry 6-75, 2-Amino-N-{1-[2-(5-hydroxy-benzofuran-3-ylmethyl)-pyrrolidine-1-carbonyl]-2-methyl-propyl}-propionamide], the Kd was 1000 to 10000 nM.

For the compound `CC(N)C(=O)NC(C(=O)N1CCCC1Cc1coc2ccccc12)C1CCCCC1` (stereo not shown) [Entry 5-47], the Kd is less than 100 nM.

For the compound `CCC(NC)C(=O)NC(C(=O)N1CCCC1Cc1cn(CCOCCOCCOC)c2ccccc12)C1CCCCC1` (stereo not shown) [Entry 16-110], the Kd is 100 to 1000 nM.

For `CC(=O)NC(C)C(=O)NC(C(=O)N1CCCC1Cc1coc2ccccc12)C(C)C` (stereo not shown) [Entry 5-65], the Kd is greater than 10000 nM.

Take `C[C@H](N)C(=O)N[C@H]1CCCNC(=O)CCc2oc3ccccc3c2C[C@@H]2CCCN2C1=O` [Entry 11-91, Ornithine-derived Lactam]: the Kd is 100 to 1000 nM.

For `CC(C)c1ccccc1OCCC[C@@H]1C[C@H](Oc2ccccc2)CN1C(=O)[C@@H](NC(=O)[C@H](C)N)C(C)C` [Entry 4-30], the Kd is 100 to 1000 nM.

With `C[C@H](N)C(=O)N[C@H](C(=O)N1C[C@@H](Oc2ccccc2)C[C@H]1Cc1coc2ccccc12)C(C)(C)C` [Entry 5-40], the Kd is less than 100 nM.

With `Cc1cccc(C)c1OCCC[C@@H]1C[C@H](Oc2ccccc2)CN1C(=O)[C@@H](NC(=O)[C@H](C)N)C(C)C` [Entry 4-31], the Kd was 100 to 1000 nM.

Regarding `CC(C)[C@H](NC(=O)[C@H](C)N)C(=O)N1C[C@@H](Oc2ccccc2)C[C@H]1/C=C/COc1ccc(Cl)cc1Cl` [Entry 3-11], the Kd is 100 to 1000 nM.

`CC(N)C(=O)NC(C(=O)N1CCCC1COc1ccccc1)C(C)C` (stereo not shown) [Entry 2-3]: the Kd was 100 to 1000 nM.

Take `C#CCOC(C)[C@H](NC(=O)[C@H](C)N)C(=O)N1CCC[C@H]1Cc1coc2ccccc12` (stereo partly shown) [Entry 5-60]: the Kd is less than 100 nM.

With `CNC(C)C(=O)NC(C(=O)N1CCCC1Cc1c(-c2cccs2)n(CCOCCOCCOC)c2cc(F)ccc12)C(C)(C)C` (stereo not shown) [Entry 16-114], the Kd is less than 100 nM.

For `CNC(C)C(=O)NC(C(=O)N1CCCC1Cc1cn(C(C)=O)c2cc(F)ccc12)C1CCCCC1` (stereo not shown) [Entry 14-97], the Kd was 100 to 1000 nM.

As for `CC[C@H](N)C(=O)N[C@H](C(=O)N1C[C@@H](Oc2ccccc2)C[C@H]1Cc1coc2ccccc12)C1CCCCC1` [Entry 5-56], the Kd was 100 to 1000 nM.

For the compound `CNC(C)C(=O)NC(C(=O)N1CCCC1Cc1coc2ccccc12)C(C)C` (stereo not shown) [Entry 5-57], the Kd was less than 100 nM.

Turning to `Cc1cccc2c(CC3CCCN3C(=O)C(NC(=O)C(C)N)C(C)C)c[nH]c12` (stereo not shown) [Entry 14-100], the Kd was less than 100 nM.

`CC(N)C(=O)NC(C(=O)N1CCCC1Cc1c(Br)oc2ccccc12)C(C)C` (stereo not shown) [Entry 9-80]: the Kd was 100 to 1000 nM.

With `CNC(C)C(=O)NC(C(=O)N1CCCC1Cc1c(Br)n(CCOCCOCCO)c2cc(F)ccc12)C(C)(C)C` (stereo not shown) [Entry 16-112], the Kd was less than 100 nM.

In the case of `C[C@H](N)C(=O)N[C@H]1Cc2ccc(cc2)OCCCc2oc3ccccc3c2C[C@@H]2CCCN2C1=O` [Entry 13-93, Tyrosine-derived Cyclic Ether], the Kd was 100 to 1000 nM.

Take `CCOC(=O)CCc1oc2ccccc2c1CC1CCCN1C(=O)C(NC(=O)C(C)N)C(C)C` (stereo not shown) [Entry 10-89, 3-(3-{1-[2-(2-Amino-propionylamino)-3-methyl-butyryl]-pyrrolidin-2-ylmethyl}-benzofuran-2-yl)-propionic acid ethyl ester]: the Kd is 1000 to 10000 nM.

With `CC(C)[C@H](NC(=O)[C@H](C)N)C(=O)N1CCC[C@H]1Cc1c(-c2ccncc2)oc2ccccc12` [Entry 9-81, 2S-Amino-N-{2-methyl-1S-[2S-(2-pyridin-4-yl-benzofuran-3-ylmethyl)-pyrrolidine-1-carbonyl]-propyl}-propionamide], the Kd is less than 100 nM.

As for `CC(N)C(=O)NC(C(=O)N1CCCC1COc1ccccc1-c1ccccc1)C(C)C` (stereo not shown) [Entry 2-6], the Kd is 100 to 1000 nM.
